From patent US8110217B2, “Sphingomyelin liposomes for the treatment of hyperactive bladder disorders” (priority 2001, dated 2012)
Entries after “also recorded” stand apart in the source; their conditions may differ.

System: hyperactive bladder (PS/KCl)
Assay: Continuous CMG, hyperactive bladder induced by PS/KCl (Examples 5-6)
Format: in vivo, female Sprague-Dawley rats
Conditions: for Amplitude / Compliance / ICI / PT: N=6
Experimental: This was followed by instillation of liposomes (LP) in saline (in the case of the former) or LP/KCl.
Intravesical bladder pressure was recorded via a transurethral catheter in adult female Sprague-Dawley rats anesthetized with urethane (1.2 g/kg) administered by subcutaneous injection (sc). Some animals were pretreated with capsaicin (125 mg/kg, sc) four days prior to the experiments. […] Parameters measured included intercontraction interval (ICI), amplitude of bladder contractions, compliance and micturition pressure threshold (PT).
Animal Preparation. Thirty-four female Sprague-Dawley rats (250-300 g) were used in this study. Animals were anesthetized with urethane (1.2 g/kg, sc). Body temperature was maintained in the physiological range using a heating lamp.
Cystometrogram (CMG). A transurethral bladder catheter (PE-50) was connected via a three-way stopcock to a pressure transducer and to a syringe pump. This was used to record intravesical pressure and to infuse solutions into the bladder. A control CMG was performed by slowly filling the bladder with saline (0.04 ml/min) to elicit repetitive voiding. The parameters recorded were amplitude, PT, compliance, and ICI of reflex bladder contractions. Measurements in each animal represented the average of 3 to 5 bladder contractions.
Induction of a Hyperactive Bladder. […] L. Cheng et al., 1993, Am. J. Physiol. 265:R132-138). The experimental design is illustrated in FIG. 7. The KCl concentration used was within the range of concentrations present in normal rat urine (M. Ohnishi et al., 2001, Toxicol. Appl. Pharmacol. 174:122-129).
Preparation of Liposomes (LP). LP were prepared as described by Kirby and Gregoriadis (C. J. Kirby and G. Gregoriadia, 1984, “A simple procedure for preparing liposomes capable of high encapsulation efficiency under mild conditions,” Liposome Technology; G. Gregnoriadis, Ed., C.R.C. Press, Inc., Boca Raton, Fla., Vol. 1, p. 20). Briefly, LP were constructed as a 2:1 molar ratio of L-α-phosphatidylcholine and cholesterol (Sigma Chemical Co., St. Louis, Mo.) to a final lipid concentration of 2 mg/ml in saline. Lipids in chloroform were dried down together in the proper ratio under nitrogen. The residues were reconstituted as LP in saline or 500 mM KCl by intense sonication.
Statistical Analyis. Statistical analyses were performed using Student's t test for paired or unpaired data, where applicable. A p-value less than 0.05 was considered significant. All data are expressed in Example 2 (below) as means±S.E.

[1] = Table 1B series: saline, KCl 500 mM 1 h, PS/KCl 1 h, LP/KCl 2 h
[2] = Table 1C series: saline, KCl 500 mM 1 h, PS/KCl 1 h
[3] = Table 1C: KCl infusion 2 h after PS/KCl
[4] = infusion after PS/KCl, vs pretreatment

Q: How did the “PT change” value (PS/KCl series, vs pretreatment) turn out when `[Cl-].[K+]` [KCl] was run?
A: significantly increased

Q: What about the Amplitude [1] of the same compound?
A: 28.8 ± 1.2 cm H2O

Q: And the Compliance [1]?
A: 0.284±0.028 ml/cm H2O

Q: And the ICI [1]?
A: 15.8 ± 1.4 min

Q: What about the PT [1] of the same compound?
A: 8.2 ± 0.9 cm H2O

Q: What about the Amplitude [2] of the same compound?
A: 28.8 ± 2.2 cm H2O

Q: And the Compliance [2]?
A: 0.226±0.050 ml/cm H2O

Q: What about the ICI [2] of the same compound?
A: 16.3 ± 1.5 min

Q: What about the PT [2] of the same compound?
A: 6.8 ± 0.6 cm H2O

Q: What about the Amplitude [3] of the same compound?
A: 33.0 ± 2.3 cm H2O

Q: And the Compliance [3]?
A: 0.043±0.014 ml/cm H2O

Q: What about the ICI [3] of the same compound?
A: 2.9 ± 0.5 min

Q: What about the PT [3] of the same compound?
A: 11.8 ± 1.6 cm H2O

Q: And the “change of ICI / CMGs” value (infused alone: PS 10 mg/ml or KCl 500 mM)?
A: not changed; also recorded: did not significantly change the CMGs

Q: And the “Compliance change” value [4]?
A: further reduced

Q: What about the “ICI change” value [4] of the same compound?
A: not significantly changed; also recorded: did not alter the ICI for periods as long as 120 min
